In patent US11591334B2, “Substituted pyrrolizines for the treatment of hepatitis B” (SHANGHAI LONGWOOD BIOPHARMACEUTICALS CO., LTD., priority 2017, dated 2023):
Read-outs that look alike come from different tables or passages of the source.

Columns and labels:
[1] = Determination of cytotoxicity (Experiment 3, resazurin assay); type: cell-based; details: human
Protocol: Compound dilution. All the compounds for in vitro anti-HBV activity assay and cytotoxicity assay were 3-fold diluted into 8 concentrations. The final concentration of the tested compound was 30 μM, the final starting concentration of reference compound GLS4 was 1 μM, and the final concentration of DMSO was 0.5%. Experiment 3: Determination of Cytotoxicity The cytotoxicity of the test compound was tested using HepG2 cells. The cells were incubated for 4 days in the presence of the test compound. Cell activity was assessed using the resazurin assay.

HBV = experiment: Determination of anti-HBV activity in HepG2.2.15 cell (Experiment 2, HBV DNA in supernatant by qPCR); type: cell-based; details: Hepatitis B virus
Protocol: Experiment 2: Determination of Anti-HBV Activity in HepG2.2.15 Cell
Compound dilution. All the compounds for in vitro anti-HBV activity assay and cytotoxicity assay were 3-fold diluted into 8 concentrations. The final concentration of the tested compound was 30 μM, the final starting concentration of reference compound GLS4 was 1 μM, and the final concentration of DMSO was 0.5%.
HepG2.2.15 cell (4×10^4 cell/well) was inoculated into 96 well plate, and cultured overnight in 37° C., 5% CO2. On the second day, fresh culture medium containing different concentrations of the compound was added into the culture wells. On the fifth day, the old culture solution in the culture well was aspirated and fresh culture medium containing different concentrations of the compound was added.
On the eighth day, the supernatant in the culture well was collected for extraction of HBV DNA, and the content of DNA in the supernatant of HepG2.2.15 HBV was detected by qPCR. After the supernatant was collected, the medium and Cell-titer Glo reagent were added into the culture well, and the chemiluminescence value of each well was measured by microplate reader.
The activity calculation formula was as follows: Y=Bottom+(Top−Bottom)/(1+10^((LogIC50−X)*Hillslope));

C150 protein = biological target: T1, C150 protein (Hepatitis B virus genotype D subtype adw, UniProt P03147, C107A/C48A/C61A/R150C); experiment: In vitro anti-HBV nucleocapsid assembly activity test (Experiment 1, protein experiment); type: biochemical
T1 construct: purchased WuXi Apptec Co., Ltd
T1 sequence (P03147 1-150 C48A/C61A/C107A/R150C): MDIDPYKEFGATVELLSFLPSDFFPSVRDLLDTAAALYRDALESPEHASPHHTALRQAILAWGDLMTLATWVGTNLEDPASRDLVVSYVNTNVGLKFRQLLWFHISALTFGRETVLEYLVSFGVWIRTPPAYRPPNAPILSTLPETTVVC
Protocol: Experiment 1: In Vitro Anti-HBV Nucleocapsid Assembly Activity Test
Main Reagents and Raw Materials:
C150 protein was expressed and purified by WuXi Apptec Co., Ltd.
BoDIPY® FL was purchased from Thermo Fisher Scientific.
Protein Fluorescent Label:
150 μL of 2% w/v skimmed milk was added into each well of 96-well plate, and incubated at room temperature for 2 hours. The skimmed milk was aspirated. The plate was washed with deionized water and dried, and stored at room temperature. C150 protein (3 mg per tube) was desalted with 5 ml Hitrap desalting column. The desalted C150 protein of each tube was added with 50 mM BoDIPY® FL Fluorescent Dye (20 μl), and incubated under 4° C. overnight in the dark after well mixed. Sephadex G-25 gel was used for filtration to remove fluorescent dyes that were not bounded onto C150. The C150 fluorescent labeling efficiency was calculated according to the following equation: [BoDIPY®FL]=A504/78,000 M^−1; [C150Bo]=(A280−[BoDIPY®FL]×1300 M^−1)/60,900 M^−1; Fluorescent Labeling Efficiency=[BoDIPY®FL]/[C150Bo];
The mother liquor of compound was diluted with DMSO to 6 mM, then diluted to 600 μM with 50 mM HEPES, and then further 3-fold diluted with 10 DMSO/50 mM HEPES to 8 concentrations.
C150Bo was diluted to 2 μM with 50 mM HEPES. 37.5 μL of C150Bo and 2.5 μL of compound at each concentration were added into a 96 well plate and well mixed, then incubated at room temperature for 15 minutes. 10 μl of 750 mM NaCl/50 mM HEPES were added into the each reaction well, and the final concentration of NaCl was 150 mM.
Into the control wells in the 0% protein group 10 μL of 50 mM HEPES was added, and the final concentration of NaCl was 0 mM.
Into the control wells in the 100% protein group 10 μL of 5 M/50 mM HEPES was added, and the final concentration of NaCl was 1 M.
The final concentration of DMSO was 0.5%, the maximum final concentration of the compound was 30 μM, and final concentration of C150Bo was 1.5 μM. The mixture was incubated at room temperature for 1 hour. Fluorescence signal was measured (excitation light was 485 nm; emission light was 535 nm).
Data Analysis % protein assembly=[1−(Sample fluorescence value−1 M NaCl fluorescence value)/(0 M NaCl fluorescence value−1 M NaCl fluorescence value)]×100.
IC50 value was calculated by prism software, and the equation was as follows: Y=Bottom+(Top−Bottom)/(1+10^((LogIC50−X)HillSlope));

[2] = HepG2 cells, incubated for 4 days, resazurin assay, read-out: Experiment 3 Cytotoxicity CC50
[3] = HepG2.2.15 cells, HBV DNA in supernatant on the eighth day, qPCR, read-out: Experiment 2 Cell experiment EC50
[4] = fluorescently labeled C150 (C150Bo) 1.5 μM, 150 mM NaCl, 1 hour at room temperature, read-out: Experiment 1 Protein experiment IC50
[5] = HepG2.2.15, read-out: Experiment 2 Cell experiment EC50 (nM)

Structure (SMILES)	CC50 at 4 days [1, 2] [nM]	EC50 (HBV; [3]) [nM]	IC50 (C150 protein) [nM]	IC50 (C150 protein; [4]) [nM]	CC50 at 4 days [1] [nM]	EC50 (HBV; [5]) [nM]
CC(NS(=O)(=O)c1c(Cl)c(C(=O)Nc2cc(F)nc(C#N)c2)n2c1C=CC2)C(F)(F)F (stereo not drawn) [Compound 10f]	> 30000	0.1 to 100	1000 to 100000			
CC(CO)NC(=O)Nc1c(Cl)c(C(=O)Nc2cc(F)nc(C#N)c2)n2c1CCCC2 (stereo not drawn) [Compound 100p]	> 30000	0.1 to 100		1000 to 100000		
CC(NS(=O)(=O)c1c(Cl)c(C(=O)Nc2ccnc(Cl)c2)n2c1C=CC2)C(F)(F)F (stereo not drawn) [Compound 10e]	> 30000	100 to 1000		1000 to 100000		
CC(NC(=O)Nc1c(Cl)c(C(=O)Nc2ccnc(Cl)c2)n2c1CCCCC2)C(F)(F)F (stereo not drawn) [Compound 100q]	> 30000	0.1 to 100		1000 to 100000		
Cc1c(S(=O)(=O)NC2C3CCC2CC(O)(CO)C3)c2n(c1C(=O)Nc1ccc(F)c(F)c1)CC=C2 (stereo not drawn) [Compound 10mm]	> 30000	100 to 1000		1000 to 100000		
C[C@@H](NS(=O)(=O)c1c(Cl)c(C(=O)Nc2ccc(F)c(F)c2)n2c1C=CCCC2)C(F)(F)F [Compound 50a]	> 30000	0.1 to 100		1000 to 100000		
C[C@@H](NS(=O)(=O)c1c(Cl)c(C(=O)Nc2ccnc(Cl)c2)n2c1CCCC2)C(F)(F)F [Compound 40c]	> 30000	0.1 to 100	1000 to 100000			
CC(NS(=O)(=O)c1c2ncccc2c(C(=O)Nc2ccc(F)c(F)c2)n1C)C(F)(F)F (stereo not drawn) [Compound 70a]	> 30000	0.1 to 100		> 100000		
C[C@@H](NS(=O)(=O)c1c(Cl)c(C(=O)Nc2ccc(F)c(C#N)c2)n2c1CCCCC2)C(F)(F)F [Compound 60b]	> 30000	0.1 to 100	1000 to 100000			
C[C@@H](NS(=O)(=O)c1c(Cl)c(C(=O)Nc2ccc(F)c(F)c2)n2c1C=CCC2)C(F)(F)F [Compound 30a]	> 30000	0.1 to 100		< 1000		
C[C@@H](NS(=O)(=O)c1c(Cl)c(C(=O)Nc2ccc(F)c(F)c2)n2c1C=CC2)C(F)(F)F [Compound 10a]	> 30000	0.1 to 100		1000 to 100000		
CC(CO)NS(=O)(=O)c1c(Cl)c(C(=O)Nc2ccc(F)c(F)c2)n2c1CCC2 (stereo not drawn) [Compound 20cc]	> 30000	100 to 1000		1000 to 100000		
C[C@@H](NS(=O)(=O)c1c(Cl)c(C(=O)Nc2ccc(F)c(C#N)c2)n2c1C=CCC2)C(F)(F)F [Compound 30b]	> 30000	0.1 to 100	1000 to 100000			
C[C@@H](NS(=O)(=O)c1c(Cl)c(C(=O)Nc2ccc(F)c(C#N)c2)n2c1C=CC2)C(F)(F)F [Compound 10c]	> 30000	0.1 to 100	1000 to 100000			
Cc1c(S(=O)(=O)NC(C)CO)c2n(c1C(=O)Nc1ccnc(C(F)F)c1)CCC2 (stereo not drawn) [Compound 20ii]	> 30000	100 to 1000		1000 to 100000		
Cc1c(NC(=O)NC(C)C(F)(F)F)c2n(c1C(=O)Nc1ccnc(Cl)c1)CCC2 (stereo not drawn) [Compound 100d]	> 30000	0.1 to 100	1000 to 100000			
CC(NS(=O)(=O)c1c2ncccc2c(C(=O)Nc2ccc(F)c(C#N)c2)n1C)C(F)(F)F (stereo not drawn) [Compound 70b]	> 30000	0.1 to 100		> 100000		
N#Cc1cc(NC(=O)c2c(Cl)c(S(=O)(=O)NC3C4CCC3CC(O)(c3cc(-c5ccccc5)on3)C4)c3n2CCC=C3)cc(F)n1 (stereo not drawn) [Compound 30s]	> 30000	100 to 1000		1000 to 100000		

Structure (SMILES)	CC50 at 4 days [1, 2] [nM]	EC50 (HBV; [3]) [nM]	IC50 (C150 protein) [nM]	IC50 (C150 protein; [4]) [nM]	CC50 at 4 days [1] [nM]	EC50 (HBV; [5]) [nM]
Cc1c(S(=O)(=O)NC(C)C(F)(F)F)c2n(c1C(=O)Nc1ccc(F)c(C#N)c1)CCCC2 (stereo not drawn) [Compound 40f]	> 30000	0.1 to 100		1000 to 100000		
CC(CO)NS(=O)(=O)c1c(Cl)c(C(=O)Nc2cc(F)nc(C#N)c2)n2c1CCC2 (stereo not drawn) [Compound 20ff]	> 30000	0.1 to 100		1000 to 100000		
Cc1c(S(=O)(=O)NC(C)C(F)(F)F)c2n(c1C(=O)Nc1ccc(F)c(F)c1)CC=C2 (stereo not drawn) [Compound 10g]	> 30000	0.1 to 100		1000 to 100000		
C[C@@H](NS(=O)(=O)c1c2[nH]ccc2c(C(=O)Nc2ccc(F)c(F)c2)n1C)C(F)(F)F [Compound 80a]	> 30000	100 to 1000		1000 to 100000		
CC(NS(=O)(=O)c1c(Cl)c(C(=O)Nc2ccc(F)c(F)c2)n2c1CCC2)C(F)(F)F (stereo not drawn) [Compound 20a]	> 30000	0.1 to 100		1000 to 100000		
O=C(Nc1ccc(F)c(F)c1)c1c(Cl)c(S(=O)(=O)N2C3CCC2CC(O)(c2cc(-c4ccccc4)on2)C3)c2n1CC=C2 (stereo not drawn) [Compound 10ww]			1000 to 100000		> 30000	0.1 to 100
C[C@@H](NS(=O)(=O)c1c(Cl)c(C(=O)Nc2ccc(F)c(C#N)c2)n2c1C=CCCC2)C(F)(F)F [Compound 50b]	> 30000	0.1 to 100	> 100000			
CC(NS(=O)(=O)Nc1c(Cl)c(C(=O)Nc2ccnc(Cl)c2)n2c1CCC2)C(F)(F)F (stereo not drawn) [Compound 90b]	> 30000	0.1 to 100		1000 to 100000		
Cc1c(NC(=O)NC2(C)COC2)c2n(c1C(=O)Nc1cc(F)nc(C#N)c1)CCCCC2 [Compound 100r]	> 30000	0.1 to 100		1000 to 100000		
CC(CO)NS(=O)(=O)Nc1c(Cl)c(C(=O)Nc2cc(F)nc(C#N)c2)n2c1CCC2 (stereo not drawn) [Compound 90f]	> 30000	0.1 to 100		1000 to 100000		
C[C@@H](NS(=O)(=O)c1c(Cl)c(C(=O)Nc2ccc(F)c(C#N)c2)n2c1CCCC2)C(F)(F)F [Compound 40b]	> 30000	0.1 to 100	1000 to 100000			
C[C@@H](NS(=O)(=O)c1c(Cl)c(C(=O)Nc2cc(F)c(F)c(F)c2)n2c1C=CC2)C(F)(F)F [Compound 10b]	> 30000	0.1 to 100	1000 to 100000			
Cc1c(S(=O)(=O)N2C3CCC2CC(O)(CO)C3)c2n(c1C(=O)Nc1cc(F)nc(C#N)c1)CC=C2 (stereo not drawn) [Compound 10vv]			1000 to 100000		> 30000	0.1 to 100
CC(NS(=O)(=O)c1c2[nH]ccc2c(C(=O)Nc2ccc(F)c(C#N)c2)n1C)C(F)(F)F (stereo not drawn) [Compound 80b]	> 30000	100 to 1000		1000 to 100000		
C[C@@H](NS(=O)(=O)c1c(Cl)c(C(=O)Nc2ccc(F)c(F)c2)n2c1CCCCC2)C(F)(F)F [Compound 60a]	> 30000	0.1 to 100		> 100000		
C[C@@H](NS(=O)(=O)Nc1c(Cl)c(C(=O)Nc2ccc(F)c(F)c2)n2c1CCC2)C(F)(F)F [Compound 90a]	> 30000	0.1 to 100		1000 to 100000		
Cc1c(NS(=O)(=O)NC2(C)COC2)c2n(c1C(=O)Nc1ccc(F)c(F)c1)CCC2 [Compound 90g]	> 30000	0.1 to 100		1000 to 100000		
